Several values for one entry are separate records, joined by “and”; a condition that tells them apart may be missing. Equal entries are not always repeated.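 Where inhibition never reached the appropriate level, the endpoint shown equals the highest concentration tested. Otherwise, values were interpolated linearly from a five-concentration, 48-hour dose response in 96-well plates. Abbreviation: GI50, concentration required for 50% inhibition of growth. Definition used: TGI = concentration required for complete inhibition of growth.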
Experiments:
Assay in all cases: DTP human tumour cell line panel, 48 h
[1] = test system: 786-0 renal
[2] = test system: A549 NSCLC
[3] = test system: ACHN renal
[4] = test system: CAKI-1 renal
[5] = test system: CCRF-CEM leukemia
[6] = test system: COLO 205 colon
[7] = test system: DLD-1 colon
[8] = test system: DMS 114 small cell lung
[9] = test system: EKVX NSCLC
[10] = test system: HCC-2998 colon
[11] = test system: HCT-116 colon
[12] = test system: HCT-15 colon
[13] = test system: HL-60(TB) leukemia
[14] = test system: HOP-18 NSCLC
[15] = test system: HOP-62 NSCLC
[16] = test system: HOP-92 NSCLC
[17] = test system: HT29 colon
[18] = test system: IGROV1 ovarian
[19] = test system: K-562 leukemia
[20] = test system: KM12 colon
[21] = test system: KM20L2 colon
[22] = test system: LOX IMVI melanoma
[23] = test system: LXFL 529 NSCLC
[24] = test system: M14 melanoma
[25] = test system: M19-MEL melanoma
[26] = test system: MALME-3M melanoma
[27] = test system: MOLT-4 leukemia
[28] = test system: NCI-H226 lung
[29] = test system: NCI-H23 lung
[30] = test system: NCI-H460 lung
[31] = test system: NCI-H522 lung
[32] = test system: OVCAR-3 ovarian
[33] = test system: OVCAR-4 ovarian
[34] = test system: OVCAR-5 ovarian
[35] = test system: OVCAR-8 ovarian
[36] = test system: RPMI-8226 leukemia
[37] = test system: RXF 393 renal
[38] = test system: SF-268 CNS
[39] = test system: SF-295 CNS
[40] = test system: SF-539 CNS
[41] = test system: SK-MEL-2 melanoma
[42] = test system: SK-MEL-28 melanoma
[43] = test system: SK-MEL-5 melanoma
[44] = test system: SK-OV-3 ovarian
[45] = test system: SN12C renal
[46] = test system: SNB-19 CNS
[47] = test system: SNB-75 CNS
[48] = test system: SNB-78 CNS
[49] = test system: SR leukemia
[50] = test system: SW-620 colon
[51] = test system: TK-10 renal
[52] = test system: U251 CNS
[53] = test system: UACC-257 melanoma
[54] = test system: UACC-62 melanoma
[55] = test system: UO-31 renal
[56] = test system: A498 renal
[57] = test system: BT-549 breast
[58] = test system: DMS 273 small cell lung
[59] = test system: DU-145 prostate
[60] = test system: HS 578T breast
[61] = test system: MCF7 breast
[62] = test system: MDA-MB-231 breast
[63] = test system: MDA-N
[64] = test system: NCI/ADR-RES ovarian
[65] = test system: PC-3 prostate
[66] = test system: T-47D breast

COc1cc2cccc(N=Cc3ccccc3Cl)c2cc1OC
TGI [1]: > 100 µM
TGI [2]: > 100 µM
TGI [3]: > 100 µM
TGI [4]: > 100 µM
TGI [5]: > 100 µM
TGI [6]: > 100 µM
TGI [7]: > 100 µM
TGI [8]: > 100 µM
TGI [9]: > 100 µM
TGI [10]: > 100 µM
TGI [11]: > 100 µM
TGI [12]: > 100 µM
TGI [13]: > 100 µM
TGI [14]: > 100 µM
TGI [15]: > 100 µM
TGI [16]: > 100 µM
TGI [17]: > 100 µM
TGI [18]: > 100 µM
TGI [19]: > 100 µM
TGI [20]: > 100 µM
TGI [21]: > 100 µM
TGI [22]: > 100 µM
TGI [23]: > 100 µM
TGI [24]: > 100 µM
TGI [25]: > 100 µM
TGI [26]: > 100 µM
TGI [27]: > 100 µM
TGI [28]: > 100 µM
TGI [29]: > 100 µM
TGI [30]: > 100 µM
TGI [31]: > 100 µM
TGI [32]: > 100 µM
TGI [33]: > 100 µM
TGI [34]: > 100 µM
TGI [35]: > 100 µM
TGI [36]: > 100 µM
TGI [37]: > 100 µM
TGI [38]: > 100 µM
TGI [39]: > 100 µM
TGI [40]: > 100 µM
TGI [41]: > 100 µM
TGI [42]: > 100 µM
TGI [43]: > 100 µM
TGI [44]: > 100 µM
TGI [45]: > 100 µM
TGI [46]: > 100 µM
TGI [47]: > 100 µM
TGI [48]: > 100 µM
TGI [49]: > 100 µM
TGI [50]: > 100 µM
TGI [51]: > 100 µM
TGI [52]: > 100 µM
TGI [53]: > 100 µM
TGI [54]: > 100 µM
TGI [55]: > 100 µM

COc1ccc(NCc2cc(OC)c(OC)c(OC)c2)cc1
TGI [1]: > 100 µM
TGI [56]: > 70.6 µM and 17.3 µM
TGI [2]: > 100 µM
GI50 [3]: 0.713 µM and 1.84 µM
TGI [3]: > 100 µM
TGI [57]: > 100 µM
GI50 [4]: 0.404 µM and 1.04 µM
TGI [4]: > 100 µM
GI50 [5]: 0.281 µM and 0.855 µM
TGI [5]: > 100 µM
TGI [6]: 0.784 µM and 2.83 µM
TGI [7]: > 100 µM
TGI [8]: 0.833 µM and 0.654 µM
TGI [58]: > 100 µM
TGI [59]: > 47.8 µM
TGI [9]: > 100 µM
TGI [10]: 2.73 µM and 3.31 µM
TGI [11]: > 72 µM and 34.1 µM
TGI [12]: > 39.7 µM and 36.5 µM
GI50 [14]: > 43.3 µM
TGI [14]: > 100 µM
TGI [15]: > 74.1 µM
TGI [16]: > 100 µM and 19.4 µM
TGI [60]: > 100 µM
TGI [17]: > 100 µM and 12.9 µM
TGI [18]: > 100 µM
GI50 [19]: 0.0444 µM and 0.114 µM
TGI [19]: > 100 µM
TGI [20]: > 32.7 µM and 31.3 µM
GI50 [21]: 0.198 µM
TGI [22]: > 100 µM
TGI [23]: > 100 µM
TGI [24]: > 100 µM and 15.4 µM
TGI [26]: > 100 µM
TGI [61]: > 100 µM
TGI [62]: > 100 µM
TGI [63]: 2.55 µM
TGI [27]: > 100 µM
GI50 [28]: 0.414 µM and 4.04 µM
TGI [28]: 6.38 µM and 29.1 µM
TGI [29]: 31.4 µM
TGI [30]: > 32.7 µM and 37.1 µM
TGI [64]: > 17.1 µM
TGI [32]: 1.17 µM and 2.89 µM
TGI [33]: > 100 µM
GI50 [34]: > 91.7 µM and 20.2 µM
TGI [34]: > 100 µM
TGI [35]: > 100 µM
TGI [65]: > 100 µM
TGI [36]: > 100 µM
TGI [37]: 7.62 µM
TGI [38]: > 100 µM
TGI [40]: 2.22 µM and 0.929 µM
GI50 [41]: 0.328 µM
TGI [41]: > 100 µM
TGI [42]: > 100 µM
GI50 [43]: 0.252 µM
TGI [43]: 32.7 µM and > 74.5 µM
TGI [44]: > 100 µM and 22.5 µM
TGI [45]: > 100 µM
TGI [46]: > 100 µM
GI50 [47]: 0.513 µM and 0.262 µM
TGI [47]: > 100 µM
TGI [48]: > 100 µM
TGI [49]: > 29 µM
TGI [50]: > 100 µM
TGI [66]: > 100 µM
TGI [51]: > 100 µM
TGI [52]: > 58.9 µM and 15.1 µM
GI50 [53]: 0.338 µM and 1.16 µM
TGI [53]: > 100 µM
GI50 [54]: 0.308 µM
TGI [54]: > 100 µM
GI50 [55]: 2.79 µM
TGI [55]: > 100 µM

Source: PubChem BioAssay (NCI)
